Where two headings read alike, the source gives them in different places. Starred links: 1 amine or outer side, 2 acyl side, 3 side chain; linkers in the order of their positions; H or OH if unused. Non-standard residues stand in square brackets, D forms with d. Residues, ends and D or L forms follow the SMILES beside them. Groups on a side chain read outwards from the residue. *: point of attachment. C18 diacid = O=C(O)CCCCCCCCCCCCCCCCC(=O)*; αMePhe(2-F) = C[C@](N)(Cc1ccccc1F)C(=O)O; γGlu = O=C(O)[C@H](CCC(=O)[*:2])N[*:1]; αMe4Pal = C[C@](N)(Cc1ccncc1)C(=O)O; αMeY = C[C@](N)(Cc1ccc(O)cc1)C(=O)O; 4Pal = N[C@@H](Cc1ccncc1)C(=O)O; αMeL = CC(C)C[C@](C)(N)C(=O)O; αMeS = C[C@](N)(CO)C(=O)O; Orn = NCCC[C@H](N)C(=O)O; AEEA = NCCOCCOCC(=O)O; Aib = CC(C)(N)C(=O)O
Experiments:
Assay type in all cases: cell-based
hGcgR = hGcgR (Homo sapiens, UniProt P47871); assay: Functional cAMP activation in the presence of 0.1% casein (no HSA); details: read-out: Relative cAMP EC50, hGcgR;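 further: intracellular cAMP rise after 30 min at 37 °C, read by HTRF against a cAMP standard curve, scaled from buffer only (0%) to maximal control ligand response (100%)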
Sequence of hGcgR (P47871 26-477): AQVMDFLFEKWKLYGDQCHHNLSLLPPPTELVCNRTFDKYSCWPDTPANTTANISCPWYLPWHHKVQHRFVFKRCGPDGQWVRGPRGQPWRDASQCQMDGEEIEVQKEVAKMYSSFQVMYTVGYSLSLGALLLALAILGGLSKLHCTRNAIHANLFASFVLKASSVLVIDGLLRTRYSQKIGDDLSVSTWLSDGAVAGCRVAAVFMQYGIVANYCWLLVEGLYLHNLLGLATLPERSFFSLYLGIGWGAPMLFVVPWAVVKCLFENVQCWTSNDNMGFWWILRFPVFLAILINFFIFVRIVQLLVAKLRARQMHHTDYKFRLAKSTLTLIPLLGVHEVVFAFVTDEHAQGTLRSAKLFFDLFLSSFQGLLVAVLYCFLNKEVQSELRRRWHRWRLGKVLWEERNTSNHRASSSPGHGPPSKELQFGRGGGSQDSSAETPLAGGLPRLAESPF

hGLP-1R [1] = target: T1, hGLP-1R (Homo sapiens, UniProt P43220); assay: Functional cAMP activity in the presence of 1% HSA; details: read-out: cAMP Rel EC50, hGLP-1R
T1 sequence (P43220 24-463): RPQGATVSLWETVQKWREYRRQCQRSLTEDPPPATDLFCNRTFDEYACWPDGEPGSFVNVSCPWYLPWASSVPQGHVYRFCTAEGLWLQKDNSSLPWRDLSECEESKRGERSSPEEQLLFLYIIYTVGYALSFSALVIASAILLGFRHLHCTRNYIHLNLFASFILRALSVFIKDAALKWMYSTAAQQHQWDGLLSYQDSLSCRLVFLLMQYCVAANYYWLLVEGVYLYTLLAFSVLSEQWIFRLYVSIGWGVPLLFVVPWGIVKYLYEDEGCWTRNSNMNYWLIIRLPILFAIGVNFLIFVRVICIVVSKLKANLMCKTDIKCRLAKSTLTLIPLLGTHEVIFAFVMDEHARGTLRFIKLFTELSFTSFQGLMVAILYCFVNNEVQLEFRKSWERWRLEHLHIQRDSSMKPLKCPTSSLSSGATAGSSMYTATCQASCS

hGIPR [2] = target: T2, hGIPR (Homo sapiens, UniProt P48546); assay: Functional cAMP activation in the presence of 0.1% casein (no HSA); details: read-out: Relative cAMP EC50, hGIPR;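 further: intracellular cAMP rise after 30 min at 37 °C read by HTRF against a standard curve, scaled between buffer alone (0%) and top control ligand concentration (100%), four-parameter fit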
T2 sequence (P48546 22-466): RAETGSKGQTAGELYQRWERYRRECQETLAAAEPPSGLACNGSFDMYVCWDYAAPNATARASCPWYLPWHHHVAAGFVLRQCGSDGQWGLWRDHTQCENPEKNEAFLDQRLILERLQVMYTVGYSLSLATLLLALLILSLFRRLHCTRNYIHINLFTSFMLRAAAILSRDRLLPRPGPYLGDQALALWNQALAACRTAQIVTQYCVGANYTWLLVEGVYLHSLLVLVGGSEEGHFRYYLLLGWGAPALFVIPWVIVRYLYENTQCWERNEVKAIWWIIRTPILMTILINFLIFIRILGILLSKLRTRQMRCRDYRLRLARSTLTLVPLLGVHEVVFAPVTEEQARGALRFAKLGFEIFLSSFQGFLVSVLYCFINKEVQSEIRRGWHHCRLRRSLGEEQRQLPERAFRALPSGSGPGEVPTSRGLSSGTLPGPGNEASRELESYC

hGLP-1R [3] = target: T1, hGLP-1R; assay: as above; details: read-out: Relative cAMP EC50, hGLP-1R
hGIPR [4] = target: T2, hGIPR; assay: Functional cAMP activity in the presence of 1% HSA; details: read-out: cAMP Rel EC50, hGIPR
human GcgR = human GcgR (Homo sapiens, UniProt P47871); assay: Functional cAMP activity in the presence of 1% HSA; details: read-out: cAMP Rel EC50, hGcgR
Sequence of human GcgR (P47871 26-477): as the sequence (P47871 26-477) above

[5] = 0.1% casein, no HSA, geometric mean
[6] = in the presence of 0.1% casein (no HSA), geometric mean
[7] = in the presence of 0.1% casein (no HSA), geometric mean of relative EC50
[8] = HEK-293 clonal cell line, 1% HSA, geometric mean of relative EC50
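Wherever Relative cAMP EC50, hGLP-1R is given: intracellular cAMP rise after 30 min at 37 °C read by HTRF, normalized between buffer only (0%) and maximal control ligand (100%), four-parameter variable-slope fit.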

Compound | EC50 (hGcgR) [nM] | EC50 (hGLP-1R [1]) [nM] | EC50 (hGIPR [2]) [nM] | EC50 (hGLP-1R [3]) [nM] | EC50 (hGIPR [4]) [nM] | EC50 (human GcgR) [nM] | also measured
H-Y[Aib]QGT[αMePhe(2-F)]TSD[4Pal]SI[αMeL]LD[Orn]K([γGlu-γGlu-C18 diacid])AQ[αMe4Pal]EFI[dE][αMeY]LQEGGPSSGAPPPSGS-NH2 [Example 647] | 18.8 | 36.1 | 0.0177 | 0.872 | 0.691 | 1210 | 
H-Y[Aib]QGT[αMePhe(2-F)]TSDY[αMeS]I[αMeL]LD[Orn]K([AEEA-γGlu-C18 diacid])AQ[Aib][Orn]FI[dE][αMeY]LEEGGPSSGEPPPEEG-NH2 [Example 403] | 1.59 | 70 | 0.0827 | 0.396 | 36.9 | 527 | 
H-Y[Aib]QGT[αMePhe(2-F)]TSD[4Pal][αMeS]I[αMeL]LD[Orn]K([γGlu-γGlu-C18 diacid])AQ[αMe4Pal]EFI[dE][αMeY]LIEGGPSSGAPPPSGGGEE-NH2 [Example 1218] |  | 48.7 |  |  | 0.626 | 185 | EC50 (hGcgR; [5]): 1.88 nM; EC50 (hGIPR [2]; [5]): 0.00839 nM; EC50 (hGLP-1R [3]; [5]): 0.58 nM
H-Y[Aib]QGT[αMePhe(2-F)]TSD[4Pal][αMeS]I[αMeL]LD[Orn]K([AEEA-γGlu-C18 diacid])AA[Aib]EFI[dE][αMeY]LIEGGPSSGAPPPSGTGQ-OH [Example 724] | 1.74 | 26.4 | 0.0102 | 0.256 | 1.06 | 209 | 
H-Y[Aib]QGT[αMePhe(2-F)]TSD[4Pal][αMeS]I[αMeL]LD[Orn]K([AEEA-γGlu-C18 diacid])AQ[Aib][Orn]FI[dE]YLIEGGPSSGEPPPSGTEE-NH2 [Example 533] | 5.02 | 30 | 0.0388 | 0.334 | 3.23 | 453 | 
H-Y[Aib]QGT[αMePhe(2-F)]TSD[4Pal][αMeS]I[αMeL]LD[Orn]K([γGlu-γGlu-C18 diacid])AA[Aib]EFI[dE][αMeY]LVEGGPSSGEPPPSGS-NH2 [Example 695] | 1.93 | 19.5 | 0.0136 | 0.254 | 0.772 | 164 | 
H-Y[Aib]QGT[αMePhe(2-F)]TSD[4Pal][αMeS]I[αMeL]LD[Orn]K([AEEA-γGlu-C18 diacid])AA[Aib]EFI[dE][αMeY]LIEGGPSSGEPPPSGGGE-NH2 [Example 746] | 1.62 | 38.6 | 0.0119 | 0.261 | 1.44 | 255 | 
H-Y[Aib]QGT[αMePhe(2-F)]TSD[4Pal][αMeS]I[αMeL]LD[Orn]K([γGlu-γGlu-C18 diacid])AQ[Aib][Orn]FI[dE][αMeY]LAEGGPSSGEPPPSGSEE-NH2 [Example 589] | 4.11 | 44.4 | 0.0672 | 0.713 | 3.83 | 289 | 
CC[C@H](C)[C@H](NC(=O)[C@H](CC(C)C)NC(=O)[C@H](Cc1ccc(O)cc1)NC(=O)[C@H](CCC(=O)O)NC(=O)[C@@H](NC(=O)[C@H](Cc1ccccc1)NC(=O)[C@H](C)NC(=O)[C@](C)(Cc1ccncc1)NC(=O)[C@H](CCC(N)=O)NC(=O)[C@H](C)NC(=O)[C@H](CCCCNC(=O)COCCOCCNC(=O)CC[C@H](NC(=O)CC[C@H](NC(=O)CCCCCCCCCCCCCCCCC(=O)O)C(=O)O)C(=O)O)NC(=O)[C@H](CCCCN)NC(=O)[C@H](CC(=O)O)NC(=O)[C@H](CC(C)C)NC(=O)[C@](C)(CC(C)C)NC(=O)[C@H](CCC(N)=O)NC(=O)[C@H](CO)NC(=O)[C@H](Cc1ccncc1)NC(=O)[C@H](CC(=O)O)NC(=O)[C@H](CO)NC(=O)[C@@H](NC(=O)[C@H](Cc1ccccc1)NC(=O)[C@@H](NC(=O)CNC(=O)[C@H](CCC(N)=O)NC(=O)C(C)(C)NC(=O)[C@@H](N)Cc1ccc(O)cc1)[C@@H](C)O)[C@@H](C)O)[C@@H](C)CC)C(=O)N[C@@H](C)C(=O)NCC(=O)NCC(=O)N1CCC[C@H]1C(=O)N[C@@H](CO)C(=O)N[C@@H](CO)C(=O)NCC(=O)N[C@@H](C)C(=O)N1CCC[C@H]1C(=O)N1CCC[C@H]1C(=O)N1CCC[C@H]1C(=O)N[C@@H](CO)C(=O)NCC(=O)N[C@@H](CO)C(N)=O [Example 869] |  | 114 |  |  | 14.1 | 571 | EC50 (hGcgR; [6]): 9.94 nM; EC50 (hGIPR [2]; [6]): 0.142 nM; EC50 (hGLP-1R [3]; [6]): 2 nM
CC[C@H](C)[C@H](NC(=O)[C@H](Cc1ccccc1)NC(=O)[C@H](C)NC(=O)C(C)(C)NC(=O)[C@H](CCC(N)=O)NC(=O)[C@H](C)NC(=O)[C@H](CCCCNC(=O)COCCOCCNC(=O)CC[C@H](NC(=O)CCCCCCCCCCCCCCCCC(=O)O)C(=O)O)NC(=O)[C@H](CCCN)NC(=O)[C@H](CC(=O)O)NC(=O)[C@H](CC(C)C)NC(=O)[C@](C)(CC(C)C)NC(=O)[C@@H](NC(=O)[C@H](CO)NC(=O)[C@H](Cc1ccncc1)NC(=O)[C@H](CC(=O)O)NC(=O)[C@H](CO)NC(=O)[C@@H](NC(=O)[C@](C)(Cc1ccccc1F)NC(=O)[C@@H](NC(=O)CNC(=O)[C@H](CCC(N)=O)NC(=O)C(C)(C)NC(=O)[C@@H](N)Cc1ccc(O)cc1)[C@@H](C)O)[C@@H](C)O)[C@@H](C)CC)C(=O)N[C@@H](CCC(=O)O)C(=O)N[C@@H](Cc1ccc(O)cc1)C(=O)N[C@@H](CC(C)C)C(=O)N[C@@H](CCC(=O)O)C(=O)N[C@@H](CCC(=O)O)C(=O)NCC(=O)NCC(=O)N1CCC[C@H]1C(=O)N[C@@H](CO)C(=O)N[C@@H](CO)C(=O)NCC(=O)N[C@@H](CCC(=O)O)C(=O)N1CCC[C@H]1C(=O)N1CCC[C@H]1C(=O)N1CCC[C@H]1C(=O)N[C@@H](CO)C(N)=O [Example 486] (H-Y[Aib]QGT[αMePhe(2-F)]TSD[4Pal]SI[αMeL]LD[Orn]K([AEEA-γGlu-C18 diacid])AQ[Aib]AFIEYLEEGGPSSGEPPPS-NH2) | 4.43 | 35 | 0.0262 | 0.375 | 2.57 | 647 | 
H-Y[Aib]QGTFTSD[4Pal]SQ[αMeL]LDKK([AEEA-γGlu-C18 diacid])AQ[αMe4Pal]AFIEYLIE[Aib]GPSSGAPPPEGS-NH2 [Example 851] |  | 428 |  |  | 24.4 | 558 | EC50 (hGcgR; [6]): 3.38 nM; EC50 (hGIPR [2]; [6]): 0.215 nM; EC50 (hGLP-1R [3]; [6]): 3.06 nM
H-Y[Aib]QGT[αMePhe(2-F)]TSD[4Pal][αMeS]I[αMeL]LD[Orn]K([γGlu-γGlu-C18 diacid])AQ[Aib][Orn]FI[dE]YLSEGGPSSGEPPPSGTE-NH2 [Example 530] | 17.1 | 437 | 0.874 | 4.91 | 63.7 | 1280 | 
H-Y[Aib]QGTFTSD[4Pal]SQ[αMeL]LDKK([AEEA-γGlu-C18 diacid])AQ[αMe4Pal]AFIEYLIE[Aib]GPSSGAPPPSSS-NH2 [Example 848] |  | 313 |  |  | 20.2 | 615 | EC50 (hGcgR; [6]): 3.22 nM; EC50 (hGIPR [2]; [6]): 0.148 nM; EC50 (hGLP-1R [3]; [6]): 2.29 nM
H-Y[Aib]QGT[αMePhe(2-F)]TSD[4Pal]SI[αMeL]LDKK([γGlu-γGlu-C18 diacid])AQ[Aib][Orn]FIEYLAEGGPSSGEPPPEGSEE-NH2 [Example 650] |  |  |  |  |  |  | EC50 (hGcgR; [7]): 16.2 nM; EC50 (hGLP-1R [1]; [8]): 31.4 nM; EC50 (hGIPR [2]; [7]): 0.0814 nM; EC50 (hGLP-1R [3]; [7]): 0.649 nM; EC50 (hGIPR [4]; [8]): 3.1 nM; EC50 (human GcgR; [8]): 574 nM
H-Y[Aib]QGTFTSDFS[Orn][αMeL]LDKK([AEEA-γGlu-C18 diacid])AQ[Aib]AFIEYLLEGGPSSGAPPPGGSG-NH2 [Example 64] |  | 397 |  |  | 24.9 | 626 | EC50 (hGcgR; [6]): 4.94 nM; EC50 (hGIPR [2]; [6]): 0.309 nM; EC50 (hGLP-1R [3]; [6]): 4.08 nM
H-Y[Aib]QGT[αMePhe(2-F)]TSD[4Pal][αMeS]I[αMeL]LD[Orn]K([AEEA-γGlu-C18 diacid])AQ[αMe4Pal]EFI[dE][αMeY]LIEGGPSSGAPPPEGGGE-NH2 [Example 759] | 1.29 | 34.8 | 0.00676 | 0.262 | 1.05 | 223 | 

Source: patent US20240270821A1, “GIP/GLP1/GCG TRI-RECEPTOR AGONISTS AND USES THEREOF” (priority 2023, published 2024)
